The target of this assay is T1, human PDE2A1 (Homo sapiens, UniProt O00408).
T1 construct: GST; purchased BPS Bioscience (San Diego, Calif.) 60020; host or cells: insect cells
Nature of the assay: IMAP FP PDE assay, human PDE2A1. The class given is biochemical. The essentials: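 GST-tagged human PDE2A1 from insect cells; substrate 50 nM FAM-cAMP containing 1000 nM cGMP in Tris pH 7.2/MgCl2/DTT buffer, enzyme giving 20% conversion. 60 min at room temperature, IMAP binding reagent, fluorescence polarization read. Apparent Ki from FP readings using apparent KM 10,000 nM; ten-point 3-fold titrations.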

[1] abbreviates: Lab B, read-out: Human PDE2 Ki (nM) Lab B.
Where [2] appears, read: Lab A, read-out: Human PDE2 Ki (nM) Lab A.

The Ki is a dissociation constant, usually derived from enzyme kinetics or from competition with a known ligand.

Read-outs that look alike come from different tables or passages of the source.

T1 sequence (O00408 1-920 isoform O00408-2): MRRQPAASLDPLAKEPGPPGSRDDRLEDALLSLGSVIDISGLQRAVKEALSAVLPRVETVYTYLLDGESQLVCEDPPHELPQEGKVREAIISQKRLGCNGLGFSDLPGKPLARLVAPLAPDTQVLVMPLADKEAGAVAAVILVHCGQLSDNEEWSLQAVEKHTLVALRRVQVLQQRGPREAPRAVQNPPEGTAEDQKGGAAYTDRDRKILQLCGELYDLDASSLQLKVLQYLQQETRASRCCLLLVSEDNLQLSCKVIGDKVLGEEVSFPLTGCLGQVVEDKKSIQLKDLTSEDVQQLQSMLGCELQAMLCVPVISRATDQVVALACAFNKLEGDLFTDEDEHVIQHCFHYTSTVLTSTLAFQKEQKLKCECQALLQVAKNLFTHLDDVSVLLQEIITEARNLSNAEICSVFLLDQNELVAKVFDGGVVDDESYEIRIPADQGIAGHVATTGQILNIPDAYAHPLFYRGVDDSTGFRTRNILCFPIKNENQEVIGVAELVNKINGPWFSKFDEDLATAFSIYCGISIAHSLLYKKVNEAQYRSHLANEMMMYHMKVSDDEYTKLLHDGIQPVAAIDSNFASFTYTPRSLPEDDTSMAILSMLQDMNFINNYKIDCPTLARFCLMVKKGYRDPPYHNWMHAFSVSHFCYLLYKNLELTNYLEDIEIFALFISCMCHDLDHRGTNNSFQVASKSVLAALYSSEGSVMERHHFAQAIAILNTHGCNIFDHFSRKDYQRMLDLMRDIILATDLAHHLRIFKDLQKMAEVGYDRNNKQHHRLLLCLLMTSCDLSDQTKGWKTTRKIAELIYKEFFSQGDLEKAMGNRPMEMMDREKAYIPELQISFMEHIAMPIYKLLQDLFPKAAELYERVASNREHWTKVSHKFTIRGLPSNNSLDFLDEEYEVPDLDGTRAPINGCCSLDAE

With `Cc1nc2c(c(C(F)F)nn2C(C)c2ccc(OC(F)F)cc2)c(=O)[nH]1` (single isomer, unassigned) [Example 182, (S)- or (R)-1-(1-(4-(Difluoromethoxy)phenyl)ethyl)-3-(difluoromethyl)-6-methyl-1H-pyrazolo[3,4-d]pyrimidin-4(5H)-one], under setting [1], the Ki is 0.84 nM.

Consider `Cc1nc2c(c(CO)nn2C(C)c2ccc(C(F)(F)F)c(F)c2)c(=O)[nH]1` (centres unmarked) [Example 1, 1-(1-(3-Fluoro-4-(trifluoromethyl)phenyl)ethyl)-3-(hydroxymethyl)-6-methyl-1H-pyrazolo[3,4-d]pyrimidin-4(5H)-one], for which the inhibitory constant (Ki) under setting [2] amounted to 1.8 nM and the Ki under setting [1] came to 5.3 nM. Consider `Cc1nc2c(c(CO)nn2C(c2ccc(OC(F)(F)F)cc2)C2CC2)c(=O)[nH]1` (single isomer, unassigned) [Example 95, (S)- or (R)-1-(Cyclopropyl(4-(trifluoromethoxy)phenyl)methyl)-3-(hydroxymethyl)-6-methyl-1H-pyrazolo[3,4-d]pyrimidin-4(5H)-one], for which, under setting [1], the inhibition constant (Ki) is 2 nM.

Regarding `Cc1nc2c(c(CF)nn2C(C)c2ccc(S(F)(F)(F)(F)F)cc2)c(=O)[nH]1` (single isomer, unassigned) [Example 200], the Ki under setting [1] came out at 2 nM. As for `Cc1nc2c(c(CO)nn2C(c2ccc(OC(F)(F)F)c(F)c2)C(C)C)c(=O)[nH]1` (single isomer, unassigned) [Example 127, (S)- or (R)-1-(1-(3-Fluoro-4-(trifluoromethoxy)phenyl)-2-methylpropyl)-3-(hydroxymethyl)-6-methyl-1H-pyrazolo[3,4-d]pyrimidin-4(5H)-one], the inhibition constant (Ki) under setting [1] came out at 0.98 nM. `Cc1nn(C(C)c2ccc(C(F)(F)F)cc2)c2nc(Cc3ccccc3O)[nH]c(=O)c12` (centres unmarked) [Example 31, 6-(2-Hydroxybenzyl)-3-methyl-1-(1-(4-(trifluoromethyl)phenyl)ethyl)-1H-pyrazolo[3,4-d]pyrimidin-4(5H)-one]: the Ki under setting [2] was 43 nM. Take `Cc1nc2c(c(CO)nn2C(c2ccc(C(F)(F)F)cc2)C(C)C)c(=O)[nH]1` (centres unmarked) [Example 5, 3-(Hydroxymethyl)-6-methyl-1-(2-methyl-1-(4-(trifluoromethyl)phenyl)propyl)-1H-pyrazolo[3,4-d]pyrimidin-4(5H)-one]: the Ki under setting [2] was determined as 0.56 nM and the Ki under setting [1] amounted to 0.74 nM. For the molecule `Cc1nc2c(c(CF)nn2C(c2ccc(C(F)(F)F)cc2)C(C)C)c(=O)[nH]1` (single isomer, unassigned) [Example 212, (R)- or (S)-3-(Fluoromethyl)-6-methyl-1-(2-methyl-1-(4-(trifluoromethyl)phenyl)propyl)-1H-pyrazolo[3,4-d]pyrimidin-4(5H)-one], under setting [1], the Ki was found to be 43 nM. Same read-out and setting: for `Cc1nc2c(c(CO)nn2[C@@H](c2ccc(C(C)(C)C)cc2)C(C)C)c(=O)[nH]1` [Example 160, (R)-1-(1-(4-tert-Butylphenyl)-2-methylpropyl)-3-(hydroxymethyl)-6-methyl-1H-pyrazolo[3,4-d]pyrimidin-4(5H)-one] the value was 0.36 nM. For `Cc1nc2c(c(CF)nn2C(C)c2ccc(OC(F)(F)F)cc2)c(=O)[nH]1` (single isomer, unassigned) [Example 207, (S)- or (R)-3-(Fluoromethyl)-6-methyl-1-(1-(4-(trifluoromethoxy)phenyl)ethyl)-1H-pyrazolo[3,4-d]pyrimidin-4(5H)-one], under setting [1], the Ki was 1.1 nM. Take `Cc1nc2c(c(CF)nn2C(c2ccc(C(F)(F)F)cc2)C2(C)CC2)c(=O)[nH]1` (single isomer, unassigned) [Example 209]: the Ki under setting [1] came out at 0.99 nM.

For `COc1ccc(Cc2nc3c(c(C)nn3C(C)c3ccc(C(F)(F)F)cc3)c(=O)[nH]2)cc1` (centres unmarked) [Example 46, 6-(4-Methoxybenzyl)-3-methyl-1-{1-[4-(trifluoromethyl)phenyl]ethyl}-1,5-dihydro-4H-pyrazolo[3,4-d]pyrimidin-4-one], under setting [2], the Ki stood at 8.6 nM. In the case of `Cc1nc2c(c(CO)nn2C(C)c2ccc(C(F)(F)F)cc2)c(=O)[nH]1` (single isomer, unassigned) [Example 27, (S)- or (R)-3-(Hydroxymethyl)-6-methyl-1-{1-[4-(trifluoromethyl)phenyl]ethyl]-1,5-dihydro-4H-pyrazolo[3,4-d]pyrimidin-4-one], the Ki is, setting by setting: under setting [2], 1.4 nM; under setting [1], 3.4 nM. Regarding `Cc1nc2c(c(CF)nn2C(C)c2ccc(OC(F)(F)F)c(F)c2)c(=O)[nH]1` (single isomer, unassigned) [Example 217, (S)- or (R)-1-(1-(3-Fluoro-4-(trifluoromethoxy)phenyl)ethyl)-3-(fluoromethyl)-6-methyl-1H-pyrazolo[3,4-d]pyrimidin-4(5H)-one], under setting [1], the Ki came to 0.7 nM. The same measure, in the same setting: the result for `Cc1nc2c(c(CO)nn2C(c2ccc(OC(F)(F)F)c(F)c2)C(C)C)c(=O)[nH]1` (single isomer, unassigned) [Example 126, (R)- or (S)-1-(1-(3-Fluoro-4-(trifluoromethoxy)phenyl)-2-methylpropyl)-3-(hydroxyl-methyl)-6-methyl-1H-pyrazolo-[3,4-d]pyrimidin-4(5H)-one] reads 5.7 nM; that for `Cc1nc2c(c(CF)nn2C(C)c2ccc(CC(F)(F)F)cc2)c(=O)[nH]1` (single isomer, unassigned) [Example 211, (S)- or (R)-3-(Fluoromethyl)-6-methyl-1-(1-(4-(2,2,2-trifluoroethyl)phenyl)ethyl)-1H-pyrazolo[3,4-d]pyrimidin-4(5H)-one], 0.65 nM; that for `Cc1nc2c(c(CF)nn2C(c2ccc(C(F)(F)F)cc2)C(C)C)c(=O)[nH]1` (single isomer, unassigned) [Example 213, (S)- or (R)-3-(Fluoromethyl)-6-methyl-1-(2-methyl-1-(4-(trifluoromethyl)phenyl)propyl)-1H-pyrazolo[3,4-d]pyrimidin-4(5H)-one], 0.19 nM.

With `Cc1nn(C(C)c2ccc(C(F)(F)F)cc2)c2nc(CF)[nH]c(=O)c12` (centres unmarked) [Example 51, 6-(Fluoromethyl)-3-methyl-1-{1-[4-(trifluoromethyl)phenyl]ethyl}-1,5-dihydro-4H-pyrazolo[3,4-d]pyrimidin-4-one], the Ki under setting [2] was 50 nM. As for `Cc1nc2c(c(CO)nn2Cc2ccc(C(F)(F)F)cc2)c(=O)[nH]1` [Example 8, 3-(Hydroxymethyl)-6-methyl-1-[4-(trifluoromethyl)benzyl]-1,5-dihydro-4H-pyrazolo[3,4-d]pyrimidin-4-one], the Ki runs as follows: under setting [2], 100 nM; under setting [1], 105 nM.

On to `CCc1nc2c(c(C)nn2C(C)c2ccc(C(F)(F)F)cc2)c(=O)[nH]1` (centres unmarked) [Example 38, 6-Ethyl-3-methyl-1-{1-[4-(trifluoromethyl)phenyl]ethyl}-1,5-dihydro-4H-pyrazolo[3,4-d]pyrimidin-4-one], for which the Ki under setting [2] stood at 28 nM. In the case of `COc1ccc(C(=O)c2nc3c(c(C(F)F)nn3C(C)c3ccc(C(F)(F)F)cc3)c(=O)[nH]2)cc1OC` (centres unmarked) [Example 198, 3-(Difluoromethyl)-6-(3,4-dimethoxybenzoyl)-1-(1-(4-(trifluoromethyl)phenyl)ethyl)-1H-pyrazolo[3,4-d]pyrimidin-4(5H)-one], under setting [1], the inhibition constant (Ki) was determined as 21 nM. The same measure, in the same setting: for `COc1ccc(Cc2nc3c(c(C(F)F)nn3C(C)c3ccc(C(F)(F)F)cc3)c(=O)[nH]2)cc1OC` (single isomer, unassigned) [Example 197] the value was 0.23 nM.

The values above are taken from US10160762B2, “6-alkyl dihydropyrazolopyrimidinone compounds as PDE2 inhibitors” (Merck Sharp & Dohme Corp., priority 2015, dated 2018).
